Results as given in patent US5968940A, “Retinoids and methods of use of same” (priority 1996, dated 1999).

Columns and labels:
[1] = system: Human promyelocytic leukemia HL-60 cells; experiment: Cell differentiation of HL-60 cells, nitroblue tetrazolium (NBT) reduction / morphology; format: cell-based
Method: Human promyelocytic leukemia HL-60 cells were cultured in RPMI-1640 medium supplemented by 10% heat-inactivated calf serum and 100 U/ml of penicillin plus 100 μg/ml of streptomycin. The flasks containing cells and medium were incubated in an incubator with 5% CO2 at 37° C. Log phase cells were seeded into the medium at a concentration of 1.2×10^5to 1.4×10^5 cells per ml and cultured in flasks containing 5 ml of medium. Each group consisted of three flasks. Different concentrations of coumarin-retinoids were added. At intervals following the addition of coumarin-retinoids to the cultures, a small portion of cells was removed and live cells were counted under a light microscope using a dye-exclusionmethod with trypan blue. Cell differentiation was judged in terms of morphology and nitroblue tetrazolium (NBT) reduction.
For a determination of NBT reducing activity, a portion of the coumarin-retinoid-treated cells was removed at intervals following treatment and centrifuged. After centrifugation, 0.5 ml of 0.1% NBT (containing 100 ng TPA) was added to each tube. The contents of the test tubes were then incubated for 1 hour at 37° C. Cell smears were prepared from the cell sediment and stained using the Wright-Giemsa technique. For each smear prepared, 200 cells were isolated for examination under a light microscope with an oil immersion lens. Cells stained with blue-black granules were considered NBT-positive cells. The 50% differentiation or effective concentration (ED50 or EC50) is shown in terms of molar (M) concentration of the […] tested.
For a determination of cell morphology, a cell smear was prepared at intervals following treatment of cells for each coumarin-retinoid concentration group using the Wright-Giemsa stain technique. Stained cells were counted and classified under a light microscope with an oil immersion lens. After treatment with coumarin-retinoids, the morphological development of HL-60 cells proceeded toward mature granulocytes. This development was manifested by decreased cell volume; a lower nuclei to cytoplasm ratio; smaller or missing nuclei; concentration of chromatin; and the appearance of a certain proportion of intermediate and late granuloblasts (progranulocytes), elongated rod granulocytes, and granulocytes with branched nuclei.
The protocols of Examples 14 and 21 were used, for the NBT and MTT assays, respectively.

fetus absorption in mice = experiment: Effect on fetus absorption in mice; format: in vivo
Method: (§1) Female mice were examined by vaginal smear the morning after being caged with male mice, and if sperm or a vaginal plug was discovered, then the mice were determined to be pregnant. The retinoids were administered at the dosage indicated starting on the seventh day of pregnancy and continued once a day for the next ten days. On the 20th day after the female mice were determined to be pregnant, they were sacrificed by cervical dislocation. Both sides of the uterus were checked and the number of living embryos, dead embryos, and absorbed embryos were counted. The living embryos were further examined for bone abnormalities.

[2] = system: bone abnormalities in mouse fetus; experiment: Bone abnormalities in mouse fetus; format: in vivo
Method: as §1
After the embryos became transparent, they were dissected and their skeletons were checked by observation under a microscope.

CC(=O)c1cc2c(C)cc(OC(=O)/C=C(C)/C=C/C=C(C)/C=C/C3=C(C)CCCC3(C)C)cc2oc1=O [Compound I-2]
NBT (+) % ([1]; 10^-5 M): 84%
NBT (+) % ([1]; 10^-6 M): 38%
NBT (+) % ([1]; 10^-7 M): 2%

CC(=O)c1cc2ccc(OC(=O)/C=C(C)/C=C/C=C(C)/C=C/C3=C(C)CCCC3(C)C)c(C)c2oc1=O [Compound I-3]
NBT (+) % ([1]; 10^-5 M): 88%
NBT (+) % ([1]; 10^-6 M): 77%
NBT (+) % ([1]; 10^-7 M): 12%

CC(=O)c1cc2c(C(=O)O)cc(OC(=O)/C=C(C)/C=C/C=C(C)/C=C/C3=C(C)CCCC3(C)C)cc2oc1=O [Compound I-4, 3-acetyl-5-carboxy-7-retinoyloxy coumarin]
NBT (+) % ([1]; 10^-5 M): 92%
NBT (+) % ([1]; 10^-6 M): 84%
NBT (+) % ([1]; 10^-7 M): 73%
NBT (+) % ([1]; 10^-8 M): 15%

CC(=O)c1cc2c(COC(=O)/C=C(C)/C=C/C=C(C)/C=C/C3=C(C)CCCC3(C)C)cc(OC(=O)/C=C(C)/C=C/C=C(C)/C=C/C3=C(C)CCCC3(C)C)cc2oc1=O [Compound I-7]
NBT (+) % ([1]; 10^-5 M): 85%
NBT (+) % ([1]; 10^-6 M): 65%
NBT (+) % ([1]; 10^-7 M): 12%

CC(=O)c1cc2c(OC(=O)/C=C(C)/C=C/C=C(C)/C=C/C3=C(C)CCCC3(C)C)c(C(=O)O)ccc2oc1=O [Compound I-8]
NBT (+) % ([1]; 10^-5 M): 98%
NBT (+) % ([1]; 10^-6 M): 69%
NBT (+) % ([1]; 10^-7 M): 55%
NBT (+) % ([1]; 10^-8 M): 34%

CC(=O)c1cc2ccc(OC(=O)/C=C(C)/C=C/C=C(C)/C=C/C3=C(C)CCCC3(C)C)c(OC(=O)/C=C(C)/C=C/C=C(C)/C=C/C3=C(C)CCCC3(C)C)c2oc1=O [Compound I-9]
Fetus Absorption, absorbed number/implanted number (fetus absorption in mice; 20 mg/kg once a day from day 7 of pregnancy): 0/113
Fetus Absorption, absorbed number/implanted number (fetus absorption in mice; 40 mg/kg once a day from day 7 of pregnancy): 0/119
NBT (+) % ([1]; 10^-5 M): 96%
NBT (+) % ([1]; 10^-6 M): 88%
NBT (+) % ([1]; 10^-7 M): 55%
NBT (+) % ([1]; 10^-8 M): 31%
Delayed Calcification, Occipital delay/fetus number ([2]; 20 mg/kg): 0/75
Delayed Calcification, Sternum delay/fetus number ([2]; 20 mg/kg): 0/75
Delayed Calcification, Occipital delay/fetus number ([2]; 40 mg/kg): 3/77
Delayed Calcification, Sternum delay/fetus number ([2]; 40 mg/kg): 2/77

CCOC(=O)c1cc(OC(=O)/C=C(C)/C=C/C=C(C)/C=C/C2=C(C)CCCC2(C)C)cc2oc(=O)c(C(C)=O)cc12 [Compound I-11, 3-acetyl-5-ethoxycarbyl-7-retinoyloxy-coumarin]
NBT (+) % ([1]; 10^-4 M): 77%
NBT (+) % ([1]; 10^-5 M): 72%
NBT (+) % ([1]; 10^-6 M): 49%
NBT (+) % ([1]; 10^-7 M): 8%

CCCCCCCCCCCCOC(=O)c1cc(OC(=O)/C=C(C)/C=C/C=C(C)/C=C/C2=C(C)CCCC2(C)C)c(OC(=O)/C=C(C)/C=C/C=C(C)/C=C/C2=C(C)CCCC2(C)C)c2oc(=O)c(C(=O)OCC)cc12 [Compound I-12]
NBT (+) % ([1]; 10^-5 M): 82%
NBT (+) % ([1]; 10^-6 M): 47%
NBT (+) % ([1]; 10^-7 M): 30%
NBT (+) % ([1]; 10^-8 M): 0%
NBT (+) % ([1]; 10^-9 M): 0%

CCOC(=O)c1cc2ccc(OC(=O)/C=C(C)/C=C/C=C(C)/C=C/C3=C(C)CCCC3(C)C)c(C)c2oc1=O [Compound I-15]
NBT (+) % ([1]; 10^-5 M): 93%
NBT (+) % ([1]; 10^-6 M): 84%
NBT (+) % ([1]; 10^-7 M): 46%
NBT (+) % ([1]; 10^-8 M): 12%

CCOC(=O)c1cc2ccc(OC(=O)/C=C(C)/C=C/C=C(C)/C=C/C3=C(C)CCCC3(C)C)cc2oc1=O [Compound I-17]
NBT (+) % ([1]; 10^-5 M): 84%
NBT (+) % ([1]; 10^-6 M): 54%
NBT (+) % ([1]; 10^-7 M): 2%

CCOC(=O)c1cc2cc(Cl)c(OC(=O)/C=C(C)/C=C/C=C(C)/C=C/C3=C(C)CCCC3(C)C)cc2oc1=O [Compound I-18]
NBT (+) % ([1]; 10^-5 M): 44%
NBT (+) % ([1]; 10^-6 M): 8%

CCOC(=O)c1cc2c(C(=O)O)cc(OC(=O)/C=C(C)/C=C/C=C(C)/C=C/C3=C(C)CCCC3(C)C)cc2oc1=O [Compound I-19]
NBT (+) % ([1]; 10^-4 M): 92%
NBT (+) % ([1]; 10^-5 M): 84%
NBT (+) % ([1]; 10^-6 M): 5%
